Assay in all cases: KiNativ, MOLM13 live cells
Type in all cases: cell-based

The target of one assay is NEK1 (Homo sapiens, UniProt Q96PY6). As to conditions: MOLM-13; 100 nM, 2 hours; Lys2; read-out: Inhibition vs DMSO. On the procedure:
(§1) Samples were analyzed by KiNativ in situ kinase profiling by ActivX Biosciences.

The target in the next assay is NEK3 (Homo sapiens, UniProt P51956). As to conditions: MOLM-13; 100 nM, 2 hours; Activation Loop; read-out: Inhibition vs DMSO. On the procedure: as §1
A further assay has as its target IKKe (Homo sapiens, UniProt Q14164). The settings on record: MOLM-13; 100 nM, 2 hours; Lys1; read-out: Inhibition vs DMSO. On the procedure: as §1
The target in another assay is CDK2 (Homo sapiens, UniProt P24941). The settings on record: 100 nM, 2 hours. On the procedure: as §1
Another assay has as its target T1, ULK1 (Homo sapiens, UniProt O75385).
T1 sequence (O75385 1-1050): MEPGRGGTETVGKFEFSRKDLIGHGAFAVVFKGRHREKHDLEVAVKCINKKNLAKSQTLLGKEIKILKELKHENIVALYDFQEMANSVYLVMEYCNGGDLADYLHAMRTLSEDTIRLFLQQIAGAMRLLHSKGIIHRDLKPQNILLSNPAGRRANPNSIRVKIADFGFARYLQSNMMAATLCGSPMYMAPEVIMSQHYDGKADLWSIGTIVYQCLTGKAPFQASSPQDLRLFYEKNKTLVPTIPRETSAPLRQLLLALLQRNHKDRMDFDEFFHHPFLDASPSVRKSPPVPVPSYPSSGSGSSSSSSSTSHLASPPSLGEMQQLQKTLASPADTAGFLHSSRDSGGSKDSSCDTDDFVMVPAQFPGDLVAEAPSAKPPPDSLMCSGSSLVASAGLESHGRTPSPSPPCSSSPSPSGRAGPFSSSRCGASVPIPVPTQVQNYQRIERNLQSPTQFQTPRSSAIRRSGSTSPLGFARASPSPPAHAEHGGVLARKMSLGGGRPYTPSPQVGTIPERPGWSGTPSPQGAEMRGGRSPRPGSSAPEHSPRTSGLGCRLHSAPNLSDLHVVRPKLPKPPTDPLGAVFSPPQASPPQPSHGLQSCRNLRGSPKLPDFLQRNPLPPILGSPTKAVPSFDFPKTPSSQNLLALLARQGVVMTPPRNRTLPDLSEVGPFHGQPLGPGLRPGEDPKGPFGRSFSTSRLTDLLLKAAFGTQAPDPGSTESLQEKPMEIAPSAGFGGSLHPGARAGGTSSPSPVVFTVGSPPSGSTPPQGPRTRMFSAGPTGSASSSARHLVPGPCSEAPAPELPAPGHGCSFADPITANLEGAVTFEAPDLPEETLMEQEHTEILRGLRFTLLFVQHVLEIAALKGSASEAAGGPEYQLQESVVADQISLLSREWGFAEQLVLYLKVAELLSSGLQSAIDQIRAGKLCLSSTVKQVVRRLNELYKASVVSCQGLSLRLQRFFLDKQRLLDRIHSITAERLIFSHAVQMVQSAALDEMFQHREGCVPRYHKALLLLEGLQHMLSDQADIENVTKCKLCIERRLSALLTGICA
As to conditions: 100 nM, 2 hours; Lys2. Here is the method:
as §1

For the next assay, the target named is NEK7 (Homo sapiens, UniProt Q8TDX7). The settings on record: MOLM-13; 100 nM, 2 hours; Lys1; read-out: Inhibition vs DMSO. Here is the method: as §1
The next assay has as its target NEK8 (Homo sapiens, UniProt Q86SG6). As to conditions: MOLM-13; 100 nM, 2 hours; Lys2; read-out: Inhibition vs DMSO. Here is the method: as §1
In a further assay the target is T2, MASTL (Homo sapiens, UniProt Q96GX5).
T2 sequence (Q96GX5 1-879): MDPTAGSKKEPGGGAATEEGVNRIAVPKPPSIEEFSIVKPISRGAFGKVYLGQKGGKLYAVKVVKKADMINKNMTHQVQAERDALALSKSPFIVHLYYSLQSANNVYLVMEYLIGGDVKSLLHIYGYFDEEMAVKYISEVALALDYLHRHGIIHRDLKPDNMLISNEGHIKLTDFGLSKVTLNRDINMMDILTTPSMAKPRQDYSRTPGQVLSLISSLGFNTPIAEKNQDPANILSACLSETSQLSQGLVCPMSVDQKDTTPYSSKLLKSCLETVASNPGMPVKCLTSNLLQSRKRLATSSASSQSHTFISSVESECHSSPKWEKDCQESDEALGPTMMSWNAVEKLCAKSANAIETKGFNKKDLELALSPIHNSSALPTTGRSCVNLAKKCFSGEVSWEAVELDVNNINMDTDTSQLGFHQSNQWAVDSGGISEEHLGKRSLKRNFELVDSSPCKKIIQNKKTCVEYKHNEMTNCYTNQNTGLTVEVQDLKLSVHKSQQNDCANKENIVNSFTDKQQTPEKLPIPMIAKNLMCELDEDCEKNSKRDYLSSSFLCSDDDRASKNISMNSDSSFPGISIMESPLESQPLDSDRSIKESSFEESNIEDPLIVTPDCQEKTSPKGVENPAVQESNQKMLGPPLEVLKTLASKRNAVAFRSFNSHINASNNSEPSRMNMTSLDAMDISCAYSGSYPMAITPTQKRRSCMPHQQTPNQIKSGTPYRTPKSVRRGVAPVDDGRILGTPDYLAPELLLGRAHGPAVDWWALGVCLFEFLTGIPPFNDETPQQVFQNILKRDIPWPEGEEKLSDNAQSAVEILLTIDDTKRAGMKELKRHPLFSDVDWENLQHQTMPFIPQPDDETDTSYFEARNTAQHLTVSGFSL
The settings on record: 100 nM, 2 hours. On the procedure:
as §1

For the next assay, the target named is ULK3 (Homo sapiens, UniProt Q6PHR2). As to conditions: 100 nM, 2 hours; Lys1. On the procedure: as §1
The next assay has as its target FES (Homo sapiens, UniProt P07332). As to conditions: MOLM-13; 100 nM, 2 hours; Lys1; read-out: Inhibition vs DMSO. On the procedure: as §1
In another assay the target is DNAPK (Homo sapiens, UniProt P78527). The settings on record: MOLM-13, 2 h, 100 nM, ATP, read-out: Inhibition vs DMSO. Here is the method: as §1
The target in a further assay is MLK3 (Homo sapiens, UniProt Q16584). As to conditions: 100 nM, 2 hours; Lys2. On the procedure:
as §1

The structures appear in SMILES notation. Where two headings read alike, the source gives them in different places.

Chain of DNAPK (P78527 2-4128 limits assumed): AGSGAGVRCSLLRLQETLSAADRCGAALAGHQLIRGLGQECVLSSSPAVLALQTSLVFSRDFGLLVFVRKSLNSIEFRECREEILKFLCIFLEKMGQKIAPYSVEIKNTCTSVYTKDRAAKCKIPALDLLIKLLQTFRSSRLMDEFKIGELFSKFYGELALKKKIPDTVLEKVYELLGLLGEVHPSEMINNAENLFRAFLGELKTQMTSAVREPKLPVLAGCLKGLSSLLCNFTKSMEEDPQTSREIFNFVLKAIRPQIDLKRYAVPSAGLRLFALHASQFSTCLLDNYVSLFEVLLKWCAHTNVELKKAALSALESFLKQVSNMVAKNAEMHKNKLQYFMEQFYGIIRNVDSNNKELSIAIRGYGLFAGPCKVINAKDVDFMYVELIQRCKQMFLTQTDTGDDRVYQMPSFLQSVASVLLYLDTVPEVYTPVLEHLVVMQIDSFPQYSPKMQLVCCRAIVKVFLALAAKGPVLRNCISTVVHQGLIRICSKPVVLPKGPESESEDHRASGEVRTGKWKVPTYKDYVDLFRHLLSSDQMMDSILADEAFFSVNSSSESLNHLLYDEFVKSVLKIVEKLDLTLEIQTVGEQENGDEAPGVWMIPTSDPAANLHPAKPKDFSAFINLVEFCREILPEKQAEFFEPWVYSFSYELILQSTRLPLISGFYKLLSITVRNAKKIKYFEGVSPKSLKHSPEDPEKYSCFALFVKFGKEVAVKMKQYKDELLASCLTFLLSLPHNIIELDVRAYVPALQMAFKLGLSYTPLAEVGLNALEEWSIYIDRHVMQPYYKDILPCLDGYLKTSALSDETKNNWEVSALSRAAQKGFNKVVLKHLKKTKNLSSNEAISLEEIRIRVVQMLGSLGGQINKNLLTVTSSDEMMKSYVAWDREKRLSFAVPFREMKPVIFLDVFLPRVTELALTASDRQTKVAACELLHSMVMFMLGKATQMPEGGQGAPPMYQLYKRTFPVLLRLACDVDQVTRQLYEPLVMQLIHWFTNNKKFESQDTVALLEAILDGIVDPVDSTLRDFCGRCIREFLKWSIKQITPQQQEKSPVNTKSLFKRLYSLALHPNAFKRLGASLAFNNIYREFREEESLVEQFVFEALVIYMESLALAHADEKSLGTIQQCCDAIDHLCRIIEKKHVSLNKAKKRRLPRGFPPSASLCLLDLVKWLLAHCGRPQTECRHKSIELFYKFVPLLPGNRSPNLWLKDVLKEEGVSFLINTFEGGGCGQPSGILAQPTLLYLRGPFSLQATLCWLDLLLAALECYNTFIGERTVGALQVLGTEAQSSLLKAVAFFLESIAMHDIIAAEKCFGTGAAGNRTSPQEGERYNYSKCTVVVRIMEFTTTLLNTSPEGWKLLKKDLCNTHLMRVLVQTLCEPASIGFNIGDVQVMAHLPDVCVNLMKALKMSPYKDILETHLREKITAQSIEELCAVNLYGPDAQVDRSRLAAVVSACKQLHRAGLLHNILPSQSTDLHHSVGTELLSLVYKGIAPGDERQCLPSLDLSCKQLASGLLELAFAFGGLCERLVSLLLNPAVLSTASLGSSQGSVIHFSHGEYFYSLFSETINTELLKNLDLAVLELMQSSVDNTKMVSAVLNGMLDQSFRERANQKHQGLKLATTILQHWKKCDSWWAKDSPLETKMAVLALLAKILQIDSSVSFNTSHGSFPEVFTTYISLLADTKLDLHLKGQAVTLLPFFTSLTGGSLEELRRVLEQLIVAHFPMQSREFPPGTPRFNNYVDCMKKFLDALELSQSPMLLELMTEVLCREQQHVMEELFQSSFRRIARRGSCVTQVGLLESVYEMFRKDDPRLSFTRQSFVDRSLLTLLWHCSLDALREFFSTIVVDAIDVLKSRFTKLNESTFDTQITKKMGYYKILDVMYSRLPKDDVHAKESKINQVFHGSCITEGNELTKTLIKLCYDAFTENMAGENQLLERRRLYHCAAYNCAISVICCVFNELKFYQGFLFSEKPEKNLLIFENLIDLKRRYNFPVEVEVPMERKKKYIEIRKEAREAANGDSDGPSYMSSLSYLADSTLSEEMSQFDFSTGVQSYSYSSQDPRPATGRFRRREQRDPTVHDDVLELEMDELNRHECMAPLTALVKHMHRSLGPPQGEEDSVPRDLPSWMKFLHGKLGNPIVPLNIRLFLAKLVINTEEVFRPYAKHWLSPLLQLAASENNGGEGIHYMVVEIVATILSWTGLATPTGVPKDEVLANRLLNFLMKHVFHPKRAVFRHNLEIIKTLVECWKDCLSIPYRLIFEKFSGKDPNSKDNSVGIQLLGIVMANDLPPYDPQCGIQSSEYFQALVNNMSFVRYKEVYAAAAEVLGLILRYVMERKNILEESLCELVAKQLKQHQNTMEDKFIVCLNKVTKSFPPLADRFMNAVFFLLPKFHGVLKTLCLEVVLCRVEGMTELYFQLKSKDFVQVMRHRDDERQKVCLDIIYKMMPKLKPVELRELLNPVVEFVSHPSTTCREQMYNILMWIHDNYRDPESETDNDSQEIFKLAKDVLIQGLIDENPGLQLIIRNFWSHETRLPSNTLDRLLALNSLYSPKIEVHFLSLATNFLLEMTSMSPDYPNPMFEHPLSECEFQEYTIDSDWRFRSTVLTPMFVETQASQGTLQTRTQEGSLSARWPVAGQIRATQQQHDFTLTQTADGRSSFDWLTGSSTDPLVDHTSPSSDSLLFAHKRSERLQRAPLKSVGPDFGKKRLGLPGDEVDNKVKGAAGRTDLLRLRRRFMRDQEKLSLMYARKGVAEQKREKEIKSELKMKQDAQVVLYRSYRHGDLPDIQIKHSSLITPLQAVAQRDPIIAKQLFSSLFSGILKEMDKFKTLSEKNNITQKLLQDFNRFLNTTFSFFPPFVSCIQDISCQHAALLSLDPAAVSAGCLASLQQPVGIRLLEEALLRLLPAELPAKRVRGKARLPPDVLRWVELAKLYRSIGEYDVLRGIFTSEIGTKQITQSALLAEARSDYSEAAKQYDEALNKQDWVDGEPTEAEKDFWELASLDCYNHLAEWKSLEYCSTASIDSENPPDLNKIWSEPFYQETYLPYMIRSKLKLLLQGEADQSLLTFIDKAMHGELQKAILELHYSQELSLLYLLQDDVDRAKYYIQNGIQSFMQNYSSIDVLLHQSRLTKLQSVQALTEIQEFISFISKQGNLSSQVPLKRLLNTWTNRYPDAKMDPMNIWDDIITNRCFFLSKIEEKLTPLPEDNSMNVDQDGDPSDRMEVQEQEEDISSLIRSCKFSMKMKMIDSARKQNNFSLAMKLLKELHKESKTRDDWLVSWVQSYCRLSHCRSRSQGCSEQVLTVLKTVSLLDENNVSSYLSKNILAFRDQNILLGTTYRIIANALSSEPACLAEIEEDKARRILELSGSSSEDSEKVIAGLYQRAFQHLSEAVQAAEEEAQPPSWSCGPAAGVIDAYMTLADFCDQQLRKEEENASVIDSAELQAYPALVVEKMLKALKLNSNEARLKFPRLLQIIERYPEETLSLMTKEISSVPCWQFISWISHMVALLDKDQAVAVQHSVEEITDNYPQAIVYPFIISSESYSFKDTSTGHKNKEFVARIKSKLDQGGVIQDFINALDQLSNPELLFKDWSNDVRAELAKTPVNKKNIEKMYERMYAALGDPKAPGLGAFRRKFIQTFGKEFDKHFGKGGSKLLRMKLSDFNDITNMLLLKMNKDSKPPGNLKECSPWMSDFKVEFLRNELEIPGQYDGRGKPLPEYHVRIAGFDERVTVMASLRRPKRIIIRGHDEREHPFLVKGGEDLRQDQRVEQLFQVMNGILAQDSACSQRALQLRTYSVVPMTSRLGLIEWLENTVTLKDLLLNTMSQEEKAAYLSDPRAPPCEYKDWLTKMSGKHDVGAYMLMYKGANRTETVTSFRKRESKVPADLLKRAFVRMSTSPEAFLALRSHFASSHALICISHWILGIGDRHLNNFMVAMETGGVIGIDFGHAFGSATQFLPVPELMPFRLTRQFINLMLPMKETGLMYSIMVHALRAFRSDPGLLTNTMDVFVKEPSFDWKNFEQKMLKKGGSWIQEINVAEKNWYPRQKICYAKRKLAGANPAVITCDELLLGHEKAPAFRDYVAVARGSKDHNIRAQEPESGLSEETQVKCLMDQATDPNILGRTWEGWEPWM
Chain of ULK3 (Q6PHR2 whole entry): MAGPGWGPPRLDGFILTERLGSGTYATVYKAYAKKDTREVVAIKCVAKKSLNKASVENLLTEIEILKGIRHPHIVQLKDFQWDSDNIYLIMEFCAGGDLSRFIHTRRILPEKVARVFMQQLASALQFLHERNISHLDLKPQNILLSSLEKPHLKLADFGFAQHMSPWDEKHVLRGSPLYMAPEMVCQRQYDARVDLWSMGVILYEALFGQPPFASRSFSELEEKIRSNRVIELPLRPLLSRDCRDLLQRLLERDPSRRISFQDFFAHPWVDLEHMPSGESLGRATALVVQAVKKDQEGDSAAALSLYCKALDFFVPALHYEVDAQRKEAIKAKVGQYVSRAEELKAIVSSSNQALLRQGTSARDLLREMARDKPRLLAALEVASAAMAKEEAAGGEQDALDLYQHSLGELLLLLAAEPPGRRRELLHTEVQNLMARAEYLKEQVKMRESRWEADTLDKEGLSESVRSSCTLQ
Chain of NEK3 (P51956 whole entry): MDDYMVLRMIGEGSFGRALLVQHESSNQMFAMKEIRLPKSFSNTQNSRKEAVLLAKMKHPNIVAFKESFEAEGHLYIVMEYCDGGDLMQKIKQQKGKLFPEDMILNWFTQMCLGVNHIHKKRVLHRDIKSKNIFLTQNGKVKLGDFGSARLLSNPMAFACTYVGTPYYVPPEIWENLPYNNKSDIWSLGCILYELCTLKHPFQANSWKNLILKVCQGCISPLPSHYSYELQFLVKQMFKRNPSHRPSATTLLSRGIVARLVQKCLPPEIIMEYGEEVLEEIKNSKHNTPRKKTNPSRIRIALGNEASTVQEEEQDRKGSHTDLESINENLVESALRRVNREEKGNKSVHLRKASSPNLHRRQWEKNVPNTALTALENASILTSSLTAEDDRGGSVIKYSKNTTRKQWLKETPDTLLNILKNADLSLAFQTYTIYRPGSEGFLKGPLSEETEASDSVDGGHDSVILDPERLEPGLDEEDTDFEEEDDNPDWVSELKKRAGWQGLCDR

With `CN1CCN(Cc2ccc(Nc3ncc(Cl)c(Nc4ccccc4S(=O)(=O)N(C)C)n3)cc2)CC1` [TP-0903], the inhibition at 0.1 µM on NEK1 is -21.7%; on NEK3 it was 14.6%; on IKKe, 19.3%; at NEK7, -26%; at NEK8 it was -5.3%; on FES, 1%. The inhibition at 0.1 µM on DNAPK (EHPFLVKGGEDLR) amounted to 11.7%; on DNAPK (KGGSWIQEINVAEK), 8.3%. The “Inhibition vs DMSO” value on CDK2 (Lys1) is 2.7%; at CDK2 (Lys2), 16.8%; on ULK1 it was 45.8%; on MASTL (ATP Loop), 10.4%; on MASTL (Lys1), -9.8%; at ULK3, 28.7%. In addition, the “Inhibition vs DMSO” value on MLK3 is 20.5%.

(Values after publication PMC7714403 (JCI Insight, 2020).)
